Measurements from paper PMC11697714, “Strigolactones initiate the formation of haustorium-like structures in Castilleja” (iScience, 2024).
Read-outs that look alike come from different tables or passages of the source.

Columns and labels:
KAI2d15 [1] = biological target: T1, KAI2d15 (Castilleja foliolosa, UniProt A0ABD3DF95, M143V/M154V/M158V, form not given); test: differential scanning fluorimetry, SYPRO Orange; type: binding; details: 20 mM Tris-HCl, 30 mM NaCl, 1 mM TCEP, pH 7.7
T1 construct: GST fusion (pGEX-4T-1) in E. coli BL21, GST cut with HRV 3C leaving N-terminal Gly-Pro; synthetic codon-optimised gene; catalytic triad S95, D217, H246; entrance M142, M153, M157; genome GenBank JAVIJP000000000

KAI2d8 = biological target: T2, KAI2d8 (Castilleja foliolosa, UniProt A0ABD3DF32); test: differential scanning fluorimetry, SYPRO Orange; type: binding; details: 20 mM Tris-HCl, 30 mM NaCl, 1 mM TCEP, pH 7.7
T2 construct: GST fusion (pGEX-4T-1) in E. coli BL21, GST cut with HRV 3C leaving N-terminal Gly-Pro; synthetic codon-optimised gene; genome GenBank JAVIJP000000000
T2 sequence (A0ABD3DF32 1-275): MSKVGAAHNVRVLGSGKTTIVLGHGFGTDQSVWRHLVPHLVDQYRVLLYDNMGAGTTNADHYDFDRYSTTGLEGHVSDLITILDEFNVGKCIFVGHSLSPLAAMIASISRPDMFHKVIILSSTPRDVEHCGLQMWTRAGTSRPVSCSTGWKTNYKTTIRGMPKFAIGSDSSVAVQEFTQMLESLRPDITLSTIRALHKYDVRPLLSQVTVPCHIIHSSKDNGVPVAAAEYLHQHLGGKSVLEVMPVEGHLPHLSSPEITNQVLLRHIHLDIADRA

KAI2d15 [2] = biological target: T1, KAI2d15; test: fluorescent hydrolysis, Michaelis-Menten; type: biochemical
KAI2d14 = test system: T3, KAI2d14; test: fluorescent hydrolysis, Michaelis-Menten; type: biochemical, Castilleja foliolosa
T3 construct: GST fusion (pGEX-4T-1) in E. coli BL21, GST cut with HRV 3C leaving N-terminal Gly-Pro; synthetic codon-optimised gene; genome GenBank JAVIJP000000000
Source text: fluorescent hydrolysis, Michaelis-Menten on KAI2d14 | Michaelis-Menten experiments using the large fluorescent strigolactone analog Yoshimulactone Green (YLG)

KAI2d15 [3] = biological target: T4, KAI2d15 (Castilleja foliolosa, UniProt A0ABD3DF95); test: fluorescent hydrolysis, Michaelis-Menten; type: biochemical
T4 construct: GST fusion (pGEX-4T-1) in E. coli BL21, GST cut with HRV 3C leaving N-terminal Gly-Pro; synthetic codon-optimised gene; catalytic triad S95, D217, H246; entrance M142, M153, M157; genome GenBank JAVIJP000000000

KAI2i1 = test system: T5, KAI2i1; test: fluorescent hydrolysis, Michaelis-Menten; type: biochemical, Castilleja foliolosa
T5 construct: GST fusion (pGEX-4T-1) in E. coli BL21, GST cut with HRV 3C leaving N-terminal Gly-Pro; synthetic codon-optimised gene; genome GenBank JAVIJP000000000
Source text: fluorescent hydrolysis, Michaelis-Menten on KAI2i1 | Michaelis-Menten experiments using the large fluorescent strigolactone analog Yoshimulactone Green (YLG)

KAI2d15 [4] = biological target: T4, KAI2d15; test: differential scanning fluorimetry, SYPRO Orange; type: binding; details: 20 mM Tris-HCl, 30 mM NaCl, 1 mM TCEP, pH 7.7
[5] = substrate: CCOC(=O)c1ccccc1-c1c2ccc(=O)cc-2oc2cc(OC3C=C(C)C(=O)O3)ccc12; test: fluorescent hydrolysis, Michaelis-Menten; type: biochemical, Castilleja foliolosa
Source text: fluorescent hydrolysis, Michaelis-Menten on KAI2d8 | Michaelis-Menten experiments using the large fluorescent strigolactone analog Yoshimulactone Green (YLG)

[6] = substrate: CCOC(=O)c1ccccc1-c1c2ccc(=O)cc-2oc2cc(OC3C=C(C)C(=O)O3)ccc12; test: fluorescent hydrolysis, Michaelis-Menten; type: biochemical, Castilleja foliolosa; remark: listed apart in the source
Source text: fluorescent hydrolysis, Michaelis-Menten on KAI2d9 | Michaelis-Menten experiments using the large fluorescent strigolactone analog Yoshimulactone Green (YLG)

T1 sequence (A0ABD3DF95 entry or part of it M143V/M154V/M158V, form open): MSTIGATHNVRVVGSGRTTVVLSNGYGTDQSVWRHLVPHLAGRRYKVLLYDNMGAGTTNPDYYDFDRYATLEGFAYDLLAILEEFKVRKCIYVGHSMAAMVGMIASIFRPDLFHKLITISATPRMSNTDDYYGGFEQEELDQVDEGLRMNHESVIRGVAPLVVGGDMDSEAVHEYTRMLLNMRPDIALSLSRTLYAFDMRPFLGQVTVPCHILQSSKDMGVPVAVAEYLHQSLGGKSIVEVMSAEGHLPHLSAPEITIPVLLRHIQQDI
T4 sequence (A0ABD3DF95 entry or part of it): as the sequence (A0ABD3DF95 entry or part of it M143V/M154V/M158V, form open) above, with V143M, V154M, V158M counted along it

In the case of CC1=C[C@H](O/C=C2/C(=O)O[C@@H]3c4ccccc4C[C@H]23)OC1=O [GR24 5DO], the “differential scanning fluorimetry, SYPRO Orange” value (KAI2d15 [1]; printed only as GR24) is reported as “mutant protein showed destabilization at lower ligand concentrations when GR24 or 5-deoxystrigol were present” and the “differential scanning fluorimetry, SYPRO Orange” value (KAI2d8) is reported as “A weaker but discernible destabilization was noted with KAI2d8”.

CCOC(=O)c1ccccc1-c1c2ccc(=O)cc-2oc2cc(OC3C=C(C)C(=O)O3)ccc12 (stereo not shown) [Yoshimulactone Green] was tested, and the Km (KAI2d15 [2]) was 2.4 µM, the Km (KAI2d14) was 1.1 ± 0.3 µM and the Km (KAI2d15 [3]) was 0.8 µM. For the same molecule, the Km (KAI2i1) was 3.1 ± 0.7 µM.

With CC1=CC(OC=C2C(=O)OC3C4=C(CCCC4(C)C)C(O)C23)OC1=O (stereo not shown) [orobanchol] the “differential scanning fluorimetry, SYPRO Orange” value (KAI2d15 [1]) was “DSF experiments with four different strigolactone molecules, testing both the variant and the wild-type protein” and the “differential scanning fluorimetry, SYPRO Orange” value (KAI2d15 [4]) was “wild-type protein destabilized at lower concentrations of strigol or orobanchol”.

CC1=C[C@H](O/C=C2/C(=O)O[C@@H]3C4=C(C[C@H]23)[C@@H](O)CCC4(C)C)OC1=O [strigol] was tested, and the “differential scanning fluorimetry, SYPRO Orange” value (KAI2d15 [1]) was “DSF experiments with four different strigolactone molecules, testing both the variant and the wild-type protein” and the “differential scanning fluorimetry, SYPRO Orange” value (KAI2d15 [4]) was “wild-type protein destabilized at lower concentrations of strigol or orobanchol”.

With CC1=C[C@H](O/C=C2/C(=O)O[C@@H]3C4=C(CCCC4(C)C)C[C@H]23)OC1=O [5-deoxystrigol] the “differential scanning fluorimetry, SYPRO Orange” value (KAI2d15 [1]) was “mutant protein showed destabilization at lower ligand concentrations when GR24 or 5-deoxystrigol were present” and the “differential scanning fluorimetry, SYPRO Orange” value (KAI2d15 [4]) was “DSF experiments with four different strigolactone molecules, testing both the variant and the wild-type protein”.

B1: KAI2d8 (Castilleja foliolosa) (protein)
chain: T2 sequence (A0ABD3DF32 1-275)
notes: GST fusion (pGEX-4T-1) in E. coli BL21, GST cut with HRV 3C leaving N-terminal Gly-Pro; synthetic codon-optimised gene; genome GenBank JAVIJP000000000
For B1, the Km [5] was 6.6 ± 0.2 µM and the kcat [5] was 2780 ± 193 s⁻¹.

B2: KAI2d9 (Castilleja foliolosa) (protein)
chain: MSTVGSAHNVQVIGSGETTVVLGHGYGTDQSVWKNLVPHLVDQYKVLLFDNMGAGTTNPDYFDFERYSTLEGYAYDLIAILEEFNVHKCIYVGHSMSAIAGAIASIFRPDLFHKLIMICASPRLTNTGDYYGGFKQEELEQLSGAMESNFQSMAMGRAPLVIGSDLESEAVQEYCRTLFNMRPDISFSVVRTIFALDMRPFLPQVTVPCHIIQSSKDIYVPLSVGEYLHQNLGGKSIVEVMPTQGHLPHLSAPEVTNPVLLRHIQQDIADA
notes: as for B1
B2 gave a Km [6] of 0.5 ± 0.1 µM and a kcat [6] of 600 ± 49 s⁻¹.
